Measurements: patent EP0384380A2, “Novel peptide derivatives and their pharmaceutical use” (JAPAN TOBACCO INC., priority 1989, dated 1990)
Where two headings read alike, the source gives them in different places.

What was measured:
Format in all cases: in vivo
Wistar male rats = assay: Flexor reflex in spinalized rats; parameters: key to Area below the reflex amplitude linking line: area under % amplitude vs. time line over 60 min (pre-dose = 100%); conditions: pre-dose amplitude = 100%; for response vs control in vivo at 0.1 mg/kg / response vs control in vivo at 0.3 mg/kg: Rattus norvegicus; for Area below the reflex amplitude linking line: covering 60 minutes
Protocol: Flexor reflex in spinalized rats
Wistar male rats (weighing 450 - 520 g) were anesthetized with ether, and the cervical part of spinal cord was exposed, into which a tracheal cannula was inserted. The vagus nerves were severed bilaterally at the cervical region. Thereafter, the cervical vertebra C1 segment was transected, and rapidly, artificial ventilation was given with the use of an artificial respirator (Shinano Factory 60 rpm. 4 ml/stroke). The rat was placed on a thermostated apparatus in which water thermostated at 37 C was circulated and fixed thereto at forelimbs, right hindlimb, tooth and tail. A venous cannula was inserted into the femoral vein in the right hindlimb and two needle electrodes were subcutaneously inserted into the left skin of the toe, and a piece of thread was attached to the limb with the edge of the thread bonded to a force-displacement - transducer. Tension of about 5 g was applied to the thread. Through the elctrodes, electric stimuli of 50 - 100 V were applied once per 30 seconds. The flexor reflex was recorded on the polygraph via a force-displacement transducer. After the reaction became constant in about one-hours' lapse for stabilization, the test compound dissolved in saline was intravenously administered. Thereafter, the reaction was recorded for 1 hour. In the data, taking the mean of the three reactions just before administration of the test compound for 100%, the reflex amplitude at 1-, 3-, 5-, 8-, 10-, 15-, 20-, 30-, 40-, 50- and 60- minutes' lapse after administration of the test compound were calculated. In Table 3, there are shown calculated area below the straight line linking the obtained reflex amplitude at the respective above-mentioned time covering 60 minutes in the case of administration of each test compounds at the dose of 0.1 mg/kg, and the reflex amplitude at 10- and 60-minutes' lapse after administration (Table 3).

ICR male mice [1] = assay: Anti-reserpine action (antagonistic action against hypothermia); conditions: SC, mice given reserpine 5 mg/kg s.c., test compound 3 or 3.5 hours later, estimated from regression line; for ED (1 degC rise in body temperature): Mus musculus, 2 h, read-out: Concentration of test compound necessary for raising body temperature by 1 °C on the average for 120 minutes
Protocol: Anti-reserpine action (Antagonistic action against hypothermia)
ICR male mice weighing 35 - 40 g were subcutaneously administered with reserpine at the dose of 5 mg/kg. About 2 hours later, each of the mice was held by a mouse-holder, and a body temperature sensor was intrarectally inserted. Thereafter, the body temperature was automatically measured every 10 minutes. The test compound dissolved in saline was subcutaneously administered 3 or 3.5 hours after administration of reserpine. After the administration of the test compound, the body temperature was measured every 10 minutes over the period of 120 minutes. The area below the body temperature line during the period was calculated, from which the regression line was estimated based upon least square method, and estimated was the amount of the test compound necessary for raising the body temperature by 1 °C on the average for 120 minutes from that just before the administration of the test compound (Table 1).

ICR male mice [2] = assay: Anti-chlorpromazine action (locomotor stimulant action); conditions: SC, mice given chlorpromazine HCl 5 mg/kg s.c., test compound one hour later, estimated from regression line; for ED (3000 locomotor counts): Mus musculus, 2 h, read-out: Concentration of test compound necessary for inducing 3000 count of automatism quantity in 2 hours
Protocol: Anti-chlorpromazine action (Locomotor stimulant action)
ICR male mice weighing 35 - 40 g (four animals per group) were subcutaneously administered with chlorpromazine HCI at the dose of 5 mg/kg and immediately set in the automatic locomotor-measuring apparatus (AUTOMEX). One hour later, the test compound dissolved in saline was subcutaneously administered, and the locomotor activity was measured every 15 minutes for 120 minutes. The total locomotor activity during the period of 120 minutes was calculated and the regression line was estimated based on the method of least squares, from which the amount of the test compound necessary for inducing 3000 locomotor-count was estimated (Table 2).

[3] = 10 min, intravenous administration at the dose of 0.1 mg/kg, read-out: Reflex amplitude (%) 10 min. after
[4] = 10 min, intravenous administration at the dose of 0.3 mg/kg (footnote *), read-out: Reflex amplitude (%) 10 min. after
[5] = intravenous administration at the dose of 0.1 mg/kg
[6] = intravenous administration at the dose of 0.3 mg/kg (footnote *)
[7] = 1 h, intravenous administration at the dose of 0.1 mg/kg, read-out: Reflex amplitude (%) 60 min. after

C[C@H]1CC(=O)C[C@H]1C(=O)N[C@@H](Cc1c[nH]cn1)C(=O)N1CCC[C@H]1C(N)=O (mixture of isomers) [Compound 19, N^α-(cis-2-Methyl-4-oxocyclopentanecarbonyl)-L-histidyl-L-prolinamide]
response vs control in vivo at 0.1 mg/kg (Wistar male rats; [3]): 138% | response vs control in vivo at 0.3 mg/kg (Wistar male rats; [4]): 250% | Area below the reflex amplitude linking line (Wistar male rats; [5]): 11860 | Area below the reflex amplitude linking line (Wistar male rats; [6]): 19114 | ED (1 degC rise in body temperature) (ICR male mice [1]): 0.14 mg/kg | ED (3000 locomotor counts) (ICR male mice [2]): 0.54 mg/kg

C[C@@H]1CC(=O)C[C@H]1C(=O)N[C@@H](Cc1c[nH]cn1)C(=O)N1CCC[C@H]1C(N)=O (mixture of isomers) [Compound 20, N^α-(trans-2-Methyl-4-oxocyclopentanecarbonyl)-L-histidyl-L-prolinamide]
response vs control in vivo at 0.1 mg/kg (Wistar male rats; [3]): 105% | response vs control in vivo at 0.3 mg/kg (Wistar male rats; [4]): 129% | Area below the reflex amplitude linking line (Wistar male rats; [5]): 6317 | Area below the reflex amplitude linking line (Wistar male rats; [6]): 10355 | ED (1 degC rise in body temperature) (ICR male mice [1]): 0.27 mg/kg | ED (3000 locomotor counts) (ICR male mice [2]): 1.3 mg/kg

NC(=O)[C@@H]1CCCN1C(=O)[C@H](Cc1c[nH]cn1)NC(=O)[C@H]1NC(=O)C[C@@H]1c1ccccc1 (relative stereo) [Compound 10, N^a-(trans-3-Phenylpyroglutamyl)-L-histidyl-L-prolinamide]
Area below the reflex amplitude linking line (Wistar male rats; [5]): 16593 | Reflex amplitude (%) 10 min. after (Wistar male rats; [5]): 242.7% | Reflex amplitude (%) 60 min. after (Wistar male rats; [5]): 329.2% | Concentration of test compound necessary for raising body temperature by 1 °C on the average for 120 minutes (ICR male mice [1]): 0.53 mg/kg | Concentration of test compound necessary for inducing 3000 count of automatism quantity in 2 hours (ICR male mice [2]): 1.89 mg/kg

NC(=O)[C@@H]1CCCN1C(=O)[C@H](Cc1c[nH]cn1)NC(=O)[C@H]1NC(=O)C[C@H]1c1ccccc1 (relative stereo) [Compound 11, N^α-(cis-3-Phenylpyroglutamyl)-L-histidyf-L-prolinamide]
Area below the reflex amplitude linking line (Wistar male rats; [5]): 11321 | Reflex amplitude (%) 10 min. after (Wistar male rats; [5]): 140.4% | Reflex amplitude (%) 60 min. after (Wistar male rats; [5]): 240.8% | Concentration of test compound necessary for raising body temperature by 1 °C on the average for 120 minutes (ICR male mice [1]): 0.28 mg/kg | Concentration of test compound necessary for inducing 3000 count of automatism quantity in 2 hours (ICR male mice [2]): 1.89 mg/kg

C[C@@H]1CC(=O)N[C@@H]1C(=O)N[C@@H](Cc1c[nH]cn1)C(=O)N1CCC[C@H]1C(N)=O [Compound 1, N^α-(cis-3-Methylpyroglutamyt)-L-histidyl-L-prolinamide]
response vs control in vivo at 0.1 mg/kg (Wistar male rats; [3]): 159% | Area below the reflex amplitude linking line (Wistar male rats; [5]): 12970 | ED (1 degC rise in body temperature) (ICR male mice [1]): 0.3 mg/kg | ED (3000 locomotor counts) (ICR male mice [2]): 0.51 mg/kg

C[C@H]1CC(=O)N[C@@H]1C(=O)N[C@@H](Cc1c[nH]cn1)C(=O)N1CCC[C@H]1C(N)=O [Compound 2, N^α-(trans-3-Methylpyroglutamyl)-L-histidyl-L-prolinamide]
response vs control in vivo at 0.1 mg/kg (Wistar male rats; [3]): 126% | Area below the reflex amplitude linking line (Wistar male rats; [5]): 7077 | ED (1 degC rise in body temperature) (ICR male mice [1]): 1.11 mg/kg | ED (3000 locomotor counts) (ICR male mice [2]): 12.9 mg/kg

C[C@@H]1CC(=O)N[C@@H]1C(=O)N[C@@H](Cc1c[nH]cn1)C(=O)N1CSC[C@H]1C(N)=O [Compound 3, 3-[N^α-(cis-3-Methylpyroglutamyt)-L-histidyl]-L-thiazolidine-4-carboxamide]
response vs control in vivo at 0.1 mg/kg (Wistar male rats; [3]): 190% | response vs control in vivo at 0.1 mg/kg (Wistar male rats; [7]): 278% | Area below the reflex amplitude linking line (Wistar male rats; [5]): 13811 | ED (1 degC rise in body temperature) (ICR male mice [1]): 0.2 mg/kg | ED (3000 locomotor counts) (ICR male mice [2]): 0.47 mg/kg

C[C@H]1CC(=O)N[C@@H]1C(=O)N[C@@H](Cc1c[nH]cn1)C(=O)N1CSC[C@H]1C(N)=O [Compound 4, 3-[N^α-(trans-3-Methylpyroglutamyl)-L-histidyl]-L-thiazolidine-4-carboxamide]
response vs control in vivo at 0.1 mg/kg (Wistar male rats; [3]): 143% | response vs control in vivo at 0.1 mg/kg (Wistar male rats; [7]): 164% | Area below the reflex amplitude linking line (Wistar male rats; [5]): 9404 | ED (1 degC rise in body temperature) (ICR male mice [1]): 0.34 mg/kg | ED (3000 locomotor counts) (ICR male mice [2]): 0.63 mg/kg

C[C@@H]1CC(=O)O[C@@H]1C(=O)N[C@@H](Cc1c[nH]cn1)C(=O)N1CCC[C@H]1C(N)=O [Compound 5, N^α-[(2S,3R)-Tetrahydro-3-methyl-5-oxo-2-furancarbonyl]-L-histidyl-L-prolinamide]
response vs control in vivo at 0.1 mg/kg (Wistar male rats; [3]): 132% | Area below the reflex amplitude linking line (Wistar male rats; [5]): 9221 | ED (1 degC rise in body temperature) (ICR male mice [1]): 0.12 mg/kg | ED (3000 locomotor counts) (ICR male mice [2]): 0.7 mg/kg

NC(=O)[C@@H]1CCCN1C(=O)[C@H](Cc1c[nH]cn1)NC(=O)C1CCC(=O)C1 (stereo partly drawn) [Compound 13, N^α-(3-Oxocyclopentanecarbonyl)-L-histidyl-L-prolinamide]
response vs control in vivo at 0.1 mg/kg (Wistar male rats; [3]): 110% | Area below the reflex amplitude linking line (Wistar male rats; [5]): 8572 | ED (1 degC rise in body temperature) (ICR male mice [1]): 0.71 mg/kg | ED (3000 locomotor counts) (ICR male mice [2]): 1.03 mg/kg

NC(=O)[C@@H]1CCCN1C(=O)[C@H](Cc1c[nH]cn1)NC(=O)[C@@H]1CCC(=O)C1 [Compound 16, N^a-[(1 R)-3-Oxocyclopentanecarbonyl]-L-histidyl-L-prolinamide]
response vs control in vivo at 0.1 mg/kg (Wistar male rats; [3]): 152% | Area below the reflex amplitude linking line (Wistar male rats; [5]): 12016 | ED (1 degC rise in body temperature) (ICR male mice [1]): 0.12 mg/kg | ED (3000 locomotor counts) (ICR male mice [2]): 0.88 mg/kg

CC1(C)CC(=O)CC1C(=O)N[C@@H](Cc1c[nH]cn1)C(=O)N1CCC[C@H]1C(N)=O (stereo partly drawn) [Compound 21, N^α-(2,2-Dimethyl-4-oxocyclopentanecarbonyl)-L-histidyl-L-prolinamide]
response vs control in vivo at 0.1 mg/kg (Wistar male rats; [3]): 115% | response vs control in vivo at 0.3 mg/kg (Wistar male rats; [4]): 170% | Area below the reflex amplitude linking line (Wistar male rats; [5]): 7186 | Area below the reflex amplitude linking line (Wistar male rats; [6]): 14294 | ED (1 degC rise in body temperature) (ICR male mice [1]): 0.18 mg/kg | ED (3000 locomotor counts) (ICR male mice [2]): 0.83 mg/kg

NC(=O)C1CCCN1C(=O)C(Cc1c[nH]cn1)NC(=O)C1CCC(=O)O1 (centres unmarked) [DN1417, reference compound]
response vs control in vivo at 0.3 mg/kg (Wistar male rats; [4]): 114% | response vs control in vivo at 0.3 mg/kg (Wistar male rats; 1 h, intravenous administration at the dose of 0.3 mg/kg (footnote *), read-out: Reflex amplitude (%) 60 min. after): 163% | Area below the reflex amplitude linking line (Wistar male rats; [6]): 8152 | ED (1 degC rise in body temperature) (ICR male mice [1]): 2.06 mg/kg | ED (3000 locomotor counts) (ICR male mice [2]): 4.34 mg/kg

NC(=O)[C@@H]1CCCN1C(=O)[C@H](Cc1c[nH]cn1)NC(=O)[C@@H]1CCC(=O)N1 [TRH, L-pyroglutamyl-L-histidyl-L-prolinamide, reference compound]
response vs control in vivo at 0.1 mg/kg (Wistar male rats; [3]): 118% | ED (3000 locomotor counts) (ICR male mice [2]): 6.82 mg/kg
